Key:
TNF = TNF (Homo sapiens, UniProt P01375); experiment: TNF-neutralization bioassay: TNF-induced cell death of LM cells (MTT); format: cell-based
How it was run: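 Mouse fibroblast LM cells (5×10^4 cells/well) treated with TNF (20 ng/ml), compound and actinomycin D sensitizer for 24 h. Viability by MTT (4 h), absorbance at 570 nm. % TNF inhibition from OD relative to TNF-treated and untreated groups; IC50 and CC50 by Prism.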

[1] = Cytotoxicity (CC50) in LM cells, MTT assay; format: cell-based; conditions: mouse, LM cells (mouse fibroblasts); 50% cytotoxic concentration
Description: First, the addition of recombinant TNF to mouse fibroblast LM cells induces cell death, and thus, by using the same, the TNF-neutralization bioassay was constructed. In other words, LM cells were pretreated with TNF (20 ng/ml) and the compounds synthesized in the above examples at various concentrations (5×10^4 cells/well), and a sensitizer actinomycin D ([…]) was added, and cultured in a CO2 incubator for 24 hours, and then the MTT assay was carried out. At this time, 10 μl of MTT (5 mg/ml stock) was added, reacted for 4 hours, and then dissolved in DMSO to measure the absorbance at 570 nm. First, the TNF cell death inhibition/neutralization action of TNF-target expected compounds at single concentration (50 or 10 μM) was measured. Second, IC50 values were determined by treating with the compounds having an excellent effect at different concentrations. The % inhibition of TNF was calculated using the following formula: % inhibition of TNF=(OD value of a group treated with TNF and compound−OD value of TNF treated group/(OD value of TNF untreated group−OD value of TNF treated group)×100.
IC50 values were statistically analyzed using Prism 6 (GraphPad) (IC50: 50% inhibitory concentration, CC50: 50% cytotoxic concentration).

TNF-etanercept binding = TNF-etanercept binding (Homo sapiens, UniProt P01375); experiment: SPR competition: inhibition of TNF-etanercept binding; conditions: etanercept alone vs with compound, FIG. 2e
Description: The competition of binding of TNF-inhibiting biopharmaceutical etanercept and the derivative compounds to TNF was measured by SPR assay. Based on the results of pH scouting (10 mM acetate buffer, pH 4.0, 4.5, 5.0, and 5.5), the appropriate buffer pH was determined, and then the recombinant TNF was immobilized on the CM5 chip (4000-5000 RU). In order to correct an effect of DMSO, a solvent correction standard was then prepared, and DMSO was added to the PBST buffer (1×PBS, pH 7.4, 0.05% Tween 20, 0.01% Triton X-100, 5% DMSO) in an amount of 5%. Then, Etanercept alone or in combination with the compounds was flowed into the chip (20 μl/min, 300 s) and dissolved (700 s), and the results of sensorgram were analyzed by a dedicated program. […] At this time, the running buffer was PBST buffer, the regeneration buffer was 10 mM glycine (pH 2.5), and the instrument was Biacore T200 (GE).

biotinylated TNF = molecular target: T1, biotinylated TNF (Homo sapiens, UniProt P01375); experiment: Flow cytometry: binding of biotinylated TNF to Raw 264.7 cells; format: cell-based, mouse; conditions: compound 800, 200, 5 μM, FACS, FIG. 3a
T1 construct: purchased R&D Systems NFTAO
Description: First, macrophage Raw 264.7 cells were prepared (4×10^6 cells/ml), and the biotinylated TNF alone or in combination with the 4-benzopyranone derivative compound (800, 200, 5 μM) was added to the cells and reacted (30 min, 4° C.). 10 μl of avidin-FITC reagent was then added and reacted in the dark (30 min, 4° C.). After washing with RDF1 buffer, FACS analysis was carried out (BD Canto). Human TNF-alpha Biotinylated Fluorokine Flow Cytometry Kit (Cat #: NFTAO) of R&D Systems was used in the experiment.

Sequence of TNF (P01375 77-233 limits assumed): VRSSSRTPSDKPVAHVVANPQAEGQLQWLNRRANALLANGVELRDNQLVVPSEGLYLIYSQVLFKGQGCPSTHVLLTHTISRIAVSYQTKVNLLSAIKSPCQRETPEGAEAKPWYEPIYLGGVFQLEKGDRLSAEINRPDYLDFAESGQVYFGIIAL
T1 sequence (P01375 77-233 limits assumed): as above
Sequence of TNF-etanercept binding (P01375 77-233 limits assumed): as above

SMILES: O=C(O)c1c(-c2cc(F)ccc2F)oc2cc(Cl)ccc2c1=O [Example 61, 2-(2,5-difluorophenyl)-3-carboxy-7-chloro-(4H)-4-benzopyranone]
- inhibition at 50 µM (TNF; compound 50 μM, TNF 20 ng/ml, actinomycin D, LM cells, 24 hours): 95.7%
- IC50 (TNF; inhibition of TNF-induced LM cell death): 1800 nM
- CC50 at 24 h [1]: > 50000 nM
- inhibition of TNF-etanercept binding (TNF-etanercept binding): significantly inhibited the TNF-etanercept binding
- inhibitory activity against TNF-cell binding (biotinylated TNF): decreased the target cell binding of TNF to the basal level in a concentration-dependent manner
